Where no end group is shown, it is not given here.
B1: C-terminal domain: C-terminal domain of S. cristatus arginine deiminase, 208 amino acid portion (protein, listed as Streptococcus cristatus)
chain: VYNREEDTRIEGGDELVLSKDVLAVGISQRTDAASIEKLLVNIFKKNVGFKKVLAFEFANNRKFMHLDTVFTMVDYDKFTIHPEIEGDLRVYSVTYENEKLKIVEEKGDLAELLAQNLGVEKVHLIRCGGGNIVAAGREQWNDGSNTLTIAPGVVVVYDRNTVTNKILEEYGLRLIKIRGSELVRGRGGPRCMSMPFEREEV

Experiments:
[1] = P4 stability in whole saliva (LC-MS/MS); type: in vitro ADME
[2] = P4 stability in H2O and PBS (LC-MS/MS); type: physicochemical
Experimental: Non-proteinogenic amino acids may improve peptide stability.
(§1) To determine P4 stability in solution, P4 was incubated in H2O, PBS, and whole saliva at 37° C. for 24 h. P4 in each sample was compared using LC-MS/MS analysis. Briefly, 2 μM P4 was injected on C18 nano-clumn and run with 5-20% of 0.1% FA in acetonitrile for 30 min. MS spectra were acquired in a positive mode on Orbitrap LTQ XL (Thermo).

[3] = buffer (PBS) and TBS (growth medium of P. gingivalis)
HOKs [4] = test: Annexin V-FITC apoptosis assay (flow cytometry); type: cell-based, human; conditions: P4 as high as 200 μM, 48 h
Experimental: (§2) To examine the cytotoxic effects of P4, plasma membrane damage of HOKs was determined by the Pierce LDH Cytotoxicity Assay Kit. HOKs were seeded into a 6-well plate at a density of 1×10^5/well and cultured in Oral Keratinocyte Medium supplemented with antibiotics (100 U/mL penicillin and 100 μg/mL streptomycin) and 10% fetal calf serum at 37° C. in a humidified chamber with 5% CO2 for 24 h. The cells were then incubated with the growth medium supplemented with P4 (50 or 200 μM) for 48 h. The growth medium was collected for an LDH cytotoxicity assay according to the manufacturer's instructions (Thermo Scientific). To measure the effect of P4 on HOK apoptosis, HOKs were harvested and stained with Annexin V-FITC Apoptosis Kit (Invitrogen), which is able to stain both apoptotic cells and dead cells. Flow cytometric analysis was performed to quantitate apoptotic cells and dead cells (annexin V+/PI+).

[5] = P4 stability in whole saliva (LC-MS/MS); type: in vitro ADME; remark: listed apart in the source
Experimental: as §1

HOKs [6] = test: LDH cytotoxicity assay; type: cell-based, human; conditions: P4 as high as 200 μM, 48 h
Experimental: as §2

[7] = system: P. gingivalis RagB (PGN_0294) and MotA/ToIQ/ExbB proton channel family protein (PGN_0806); test: Pull-down assay of ArcA-interacting surface proteins; type: binding, Porphyromonas gingivalis; conditions: MS identification
Experimental: Pull-down assays. To isolate and identify P. gingivalis surface molecule(s) that interacts with ArcA, we performed a pull-down assay. Surface extracts of P. gingivalis were prepared by sonication with a Sonic Dismembrator (Fisher Scientific; output control 8, 20 s×3), and the cell debris were removed by centrifugation followed by filtration (0.2-μm pore size). Surface extracts of 33277 were mixed with purified ArcA on a rotator at room temperature for 1 h, and then added to an ArcA antibody coupled Sepharose 4B column (Sigma-Aldrich). After incubation at room temperature for 1 h, the column was washed three times with PBS containing 0.01% Tween, and proteins were eluted by 0.1 M Glycine pH 2.4. After SDS-PAGE, bands were excised and identified by liquid chromatography-mass spectrometry.

P. gingivalis 33277 [8] = test: Immunofluorescence/confocal assay of ArcA binding to bacteria; design: species or system Porphyromonas gingivalis; conditions: purified ArcA 50 μg, 10^8 cells
Experimental: The upper panel presents differential interference contrast (DIC) images showing the location of the bacteria. The red images in the lower panel are the TRITC fluorescence labeling images representing S. cristatus ArcA bound to P. gingivalis 33277 or A. actinomycetemcomitans Y4 that are positively labeled by ArcA specific antibody.
Confocal microscopy. ArcA (50 μg) was purified from S. cristatus CC5A as described (Teles R, Teles F, Frias-Lopez J, Paster B, Haffajee A. 2013. Lessons learned and unlearned in periodontal microbiology. Periodontal 2000 62: 95-162), mixed with P. gingivalis cells (10^8) in PBS and incubated at room temperature for 1 h. After washing three times with PBS, bacteria-protein complexes were blocked in PBS with 5% BSA for 1 h. ArcA bound to P. gingivalis was detected by staining with rabbit anti-ArcA polyclonal antibody (1:400) and tetramethyl rhodamine isothiocyanate (TRITC, 1:500)-conjugated AffiniPure Goat Anti-Rabbit IgG antibody. Visualization was with a LSM 510 inverted confocal microscope with selected filters (543 nm excitation and 560 nm emission).

[9] = system: surface extracts of P. gingivalis 33277; test: ArcA peptide microarray binding of surface extracts; design: species or system Porphyromonas gingivalis; conditions: portions of ArcA
Experimental: The five highest peaks are numbered.
Protein Interaction Screening. Surface extracts of P. gingivalis were collected by sonication (1 min for three times) and centrifugation (13000 g for 30 min) followed by filtration (0.2 μm pore size). Peptide microarray analysis was performed by PEPperPRINT (Heidelberg, Germany). An ArcA microarray was generated with 409 different peptides of ArcA, and each peptide contained 15 amino acids with a peptide-peptide overlap of 14 amino acids. After blocking and washing, the array was incubated with surface extracts (100 μg/ml) isolated from P. gingivalis 33277, the 0806 mutant, or the ragB mutant. P. gingivalis surface proteins bound on the ArcA array were detected using anti-P. gingivalis antibodies and sheep anti-rabbit IgG (H+L) DyLight680. The arrays were analyzed with a LI-COR Odyssey Imaging System.

P. gingivalis 33277 [10] = type: cell-based, Porphyromonas gingivalis; conditions: for inhibitory activity on virulence gene expression: lower efficiency than peptide4; for Relative expression level fmA / Relative expression level kgp / Relative expression level mfa1 / Relative expression level pgn0128 / Relative expression level rgpA / Relative expression level rgpA/B: peptide 16 μM in TSB; for Relative expression level fmA: mRNA by real-time PCR relative to absence of peptides = 1 unit, mean of three experiments; for Relative expression level kgp / Relative expression level mfa1 / Relative expression level pgn0128 / Relative expression level rgpA / Relative expression level rgpA/B: mRNA relative to absence of peptides = 1 unit
Experimental: The half inhibitory concentration (IC50) was measured by conducting three independent experiments to determine mRNA levels of fimA, mfa1, rgpA/B, and kgp in the presence of peptide4 at the concentrations 0, 4, 16, and 64 μM, respectively. The IC50 for each gene was established using a Microsoft Excel program with add-in for curve fitting. Asterisks indicate the statistical significances of IC50 of peptide4 for a specific gene when compared to that for the fimA gene (P<0.05; t test).
RNA isolation and qPCR. P. gingivalis were homogenized in Trizol Reagent (Invitrogen, Carlsbad, Calif.) and RNA was purified using an RNeasy mini spin column (Qiagen, Valencia, Calif.). RNA samples were digested on-column with RNase-free DNase, and total RNA was tested using an Agilent 2100 Bioanalyzer to ensure the quality of the samples. Amplification reactions consisted of a reverse transcription using a Bio-Rad iScript Reverse Transcription Supermix on a TC-3000 thermal cycler (Techne, Staffordshire, ST15 OSA, UK) and a real-time qRT-PCR analysis using a QuantiTect SYBR Green RT-PCR Kit (Qiagen) on an iCycler MyiQ™ Real-Time PCR detection system (Bio-Rad Laboratories, Inc, Hercules, Calif.) according to the manufacturer's instructions. P. gingivalis 16 S rRNA gene was used as a normalizing gene. The melting curve profile was analyzed to verify a single peak for each sample, which indicated primer specificity. The expression levels of the investigated genes for the test sample were determined relative to the untreated calibrator sample by using the comparative cycle threshold (ΔCT) method. ΔCT was calculated by subtracting the average CT value of the test sample from the average CT value of the calibrator sample, and the value used to calculate the ratio between the two by assuming 100% amplification efficiency.
Peptide synthesis and activity. Peptides were synthesized by PEPperPRINT and Biomatik (Delaware) and purified with High Performance Liquid Chromatography (HPLC) at 90% purity. Peptides were resuspended in nuclease/proteinase-free PBS, aliquoted, and stored at −20° C. Inhibitory activity of peptides were determined as described (Hajishengallis, G., Darveau, R. P. & Curtis, M. A. The keystone-pathogen hypothesis. Nature reviews. Microbiology 10, 717-725, doi:10.1038/nrmicro2873 (2012)) with slight modification. Peptides were mixed with 5×10^5 cells of P. gingivalis, spotted onto a TSB blood agar plate, and cultured for 60 h anaerobically. The expression levels of fimbrial and gingipain mRNA or proteins were measured using qRT-PCR or western blot analyses.
P. gingivalis 33277 was grown TSB in the presence or absence of peptide at a concentration 16 μM. Transcript levels were measured by real-time PCR. The mRNA levels of genes are indicated relative to the expression level in the absence of peptides as 1 unit. Results shown are means and standard deviations from three independent experiments. Asterisks indicate the statistical significance of expression levels at least two fold in P. gingivalis grown in TSB with/without peptides (P<0.05; t test).

P. gingivalis = test: Effect of ArcA domains on fimA expression; type: cell-based, Porphyromonas gingivalis; conditions: domain of ArcA as a whole
[11] = Arginine deiminase activity of ArcA domain; type: biochemical

| Molecule | binding to P. gingivalis surface proteins [9] | inhibitory activity on virulence gene expression (P. gingivalis 33277 [10]) | Relative expression level fmA (P. gingivalis 33277 [10]) | Relative expression level kgp (P. gingivalis 33277 [10]) | Relative expression level mfa1 (P. gingivalis 33277 [10]) | Relative expression level pgn0128 (P. gingivalis 33277 [10]) | Relative expression level rgpA (P. gingivalis 33277 [10]) | Relative expression level rgpA/B (P. gingivalis 33277 [10]) | other results |
| --- | --- | --- | --- | --- | --- | --- | --- | --- | --- |
| NIFKKNVGFKK [P4, NIFKKNVGFKK] |  |  |  |  |  |  |  |  | Signal Intensity of 331.45 m/z peak ([1]; Saliva, 48 hour, 37° C.): 6.0 × 10^3 ± 4.1 × 10^2; signal in diluted whole saliva ([1]; after 48 h): completely diP4eared; stability at 37° C. ([2]; 37° C. for 24 h, initial study): stable; stability in H2O and PBS ([2]; 24 h incubation, 37° C.): not affected; solubility [3]: can be dissolved; apoptosis of HOKs (annexin V/PI) (HOKs [4]): did not induce; time P4 can maintain in saliva at certain level ([5]; 37° C.): at least 24 h; signal in diluted whole saliva ([5]; PBS:saliva 1:1, 0, 0.5, 1, 2, 4 and 24 h): gradual reduction; Signal Intensity of 331.45 m/z peak ([5]; Saliva (PBS:saliva 1:1), 0 hour): 3.9 × 10^6 ± 3.1 × 10^5; Signal Intensity of 331.45 m/z peak ([5]; Saliva, 0.5 hour, 37° C.): 3.6 × 10^6 ± 4.0 × 10^5; Signal Intensity of 331.45 m/z peak ([5]; Saliva, 1 hour, 37° C.): 2.4 × 10^6 ± 2.2 × 10^5; Signal Intensity of 331.45 m/z peak ([5]; Saliva, 2 hour, 37° C.): 1.7 × 10^6 ± 4.2 × 10^5; Signal Intensity of 331.45 m/z peak ([5]; Saliva, 4 hour, 37° C.): 8.8 × 10^5 ± 2.7 × 10^4; Signal Intensity of 331.45 m/z peak ([5]; Saliva, 24 hour, 37° C.): 4.2 × 10^5 ± 3.9 × 10^4; cell membrane damage of HOKs (LDH) (HOKs [6]): did not induce |
| arginine deiminase [ArcA] |  |  |  |  |  |  |  |  | interaction with P. gingivalis surface proteins PGN_0294 and PGN_0806 [7]: found to interact; affinity of ArcA for bacterial cells (P. gingivalis 33277 [8]): high affinity |
| ELVRGRGGPRCMSMPF (listed as Streptococcus cristatus) [P5, ArcA-derived peptide from residue 389, C-terminal domain] | demonstrated to bind | some inhibitory activity | 0.97 | 0.96 | 0.83 | 0.91 | 0.73 | 0.72 |  |
| NHMFADTRNRE (listed as Streptococcus cristatus) [P2, ArcA-derived peptide from residue 177, N-terminal domain] | demonstrated to bind | some inhibitory activity | 0.80 | 0.90 | 0.80 | 0.88 | 0.81 | 0.78 |  |
| VYNREEDTRIEGGDEL (listed as Streptococcus cristatus) [P3, ArcA-derived peptide from residue 208, C-terminal domain] | demonstrated to bind | some inhibitory activity | 0.87 | 0.99 | 0.82 | 0.91 | 0.84 | 0.98 |  |
| IRGRETKK (listed as Streptococcus cristatus) [P1, ArcA-derived peptide from residue 97, N-terminal domain] | demonstrated to bind | some inhibitory activity | 0.88 | 1.06 | 0.85 | 0.96 | 0.86 | 0.89 |  |
| B1 |  |  |  |  |  |  |  |  | effect on fimA expression of P. gingivalis (P. gingivalis): observed to affect; deiminase activity [11]: does not have any deiminase activity |

Source: patent publication US11504414B2, “Bacterial inhibitors” (priority 2016, dated 2022)
